# Results: ChEMBL document CHEMBL4184281, “Pharmacology and in vivo efficacy of pyridine-pyrimidine amides that inhibit microtubule polymerization” (Bioorg Med Chem Lett, 2018)
# Active and inactive are the calls of the source. The rule behind the calls is not given here.
# Columns and labels:
# SNU-16 [1] = assay: Antitumor activity against human SNU16 cells xenografted in nude BALB/c mouse assessed as tumor growth inhibition relative to control; type: functional
# Cytochrome P450 2C19 = Cytochrome P450 2C19 (Homo sapiens, UniProt P33261); assay: Inhibition of CYP2C19 (unknown origin); type: ADME
# Cytochrome P450 2C19, sequence (P33261 whole entry): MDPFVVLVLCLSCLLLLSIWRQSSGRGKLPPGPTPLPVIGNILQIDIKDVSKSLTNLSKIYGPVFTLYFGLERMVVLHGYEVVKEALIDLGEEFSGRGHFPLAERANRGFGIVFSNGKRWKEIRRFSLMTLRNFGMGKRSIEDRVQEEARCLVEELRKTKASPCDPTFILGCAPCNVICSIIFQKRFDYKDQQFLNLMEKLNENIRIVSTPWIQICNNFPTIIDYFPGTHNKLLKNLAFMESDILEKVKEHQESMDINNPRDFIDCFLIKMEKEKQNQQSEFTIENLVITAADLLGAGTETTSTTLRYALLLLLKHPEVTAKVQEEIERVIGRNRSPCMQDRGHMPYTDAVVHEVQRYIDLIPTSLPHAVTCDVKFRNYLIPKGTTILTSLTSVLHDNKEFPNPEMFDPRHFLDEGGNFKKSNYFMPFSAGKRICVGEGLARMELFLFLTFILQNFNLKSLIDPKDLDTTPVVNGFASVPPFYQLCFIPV
# Cytochrome P450 3A4 = Cytochrome P450 3A4 (Homo sapiens, UniProt P08684); assay: Inhibition of CYP3A4 (unknown origin); type: ADME
# Cytochrome P450 3A4, sequence (P08684 whole entry): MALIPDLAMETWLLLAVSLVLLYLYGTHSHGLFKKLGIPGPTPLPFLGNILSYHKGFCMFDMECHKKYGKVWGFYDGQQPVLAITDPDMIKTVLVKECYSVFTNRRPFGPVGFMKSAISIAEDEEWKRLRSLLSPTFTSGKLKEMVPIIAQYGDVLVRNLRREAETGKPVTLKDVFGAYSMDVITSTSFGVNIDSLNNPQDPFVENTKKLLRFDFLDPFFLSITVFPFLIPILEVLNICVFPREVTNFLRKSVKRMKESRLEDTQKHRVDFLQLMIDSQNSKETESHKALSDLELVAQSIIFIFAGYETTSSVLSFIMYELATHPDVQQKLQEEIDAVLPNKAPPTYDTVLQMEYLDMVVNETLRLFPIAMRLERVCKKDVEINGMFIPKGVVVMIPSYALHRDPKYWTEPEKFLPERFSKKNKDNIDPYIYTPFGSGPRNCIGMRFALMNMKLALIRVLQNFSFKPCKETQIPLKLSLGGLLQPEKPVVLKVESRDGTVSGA
# Cytochrome P450 2C9 = Cytochrome P450 2C9 (Homo sapiens, UniProt P11712); assay: Inhibition of CYP2C9 (unknown origin); type: ADME
# Cytochrome P450 2C9, sequence (P11712 whole entry): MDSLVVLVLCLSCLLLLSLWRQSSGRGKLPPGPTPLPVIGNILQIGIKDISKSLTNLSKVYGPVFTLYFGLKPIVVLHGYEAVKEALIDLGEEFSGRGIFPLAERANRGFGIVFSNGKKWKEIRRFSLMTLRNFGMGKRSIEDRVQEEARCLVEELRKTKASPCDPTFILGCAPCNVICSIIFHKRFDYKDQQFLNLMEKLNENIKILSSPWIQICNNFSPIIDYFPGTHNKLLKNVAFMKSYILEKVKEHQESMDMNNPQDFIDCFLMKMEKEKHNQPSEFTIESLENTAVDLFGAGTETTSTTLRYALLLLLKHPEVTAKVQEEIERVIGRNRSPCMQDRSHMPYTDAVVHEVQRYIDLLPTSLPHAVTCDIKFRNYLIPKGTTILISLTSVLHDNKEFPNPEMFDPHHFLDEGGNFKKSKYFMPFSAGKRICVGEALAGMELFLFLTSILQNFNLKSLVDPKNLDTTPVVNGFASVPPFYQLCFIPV
# in vitro [2] = conditions: human, Caco-2
# Description: Apparent intrinsic permeability in human Caco2 cells from apical to basolateral side after 120 mins by mass spectrometry
# A2780 [3] = assay: Antitumor activity against human A2780 cells xenografted in nude BALB/c mouse assessed as tumor growth inhibition at 20 mg/kg, po qd measured up to 12 days post dose; type: functional, organism-based
# [4] = Toxicity in mouse administered as single po dose; type: organism-based; conditions: in vivo
# Cytochrome P450 1A2 = target: T1, Cytochrome P450 1A2 (Homo sapiens, UniProt P05177); assay: Inhibition of CYP1A2 (unknown origin); type: ADME
# T1 sequence (P05177 whole entry): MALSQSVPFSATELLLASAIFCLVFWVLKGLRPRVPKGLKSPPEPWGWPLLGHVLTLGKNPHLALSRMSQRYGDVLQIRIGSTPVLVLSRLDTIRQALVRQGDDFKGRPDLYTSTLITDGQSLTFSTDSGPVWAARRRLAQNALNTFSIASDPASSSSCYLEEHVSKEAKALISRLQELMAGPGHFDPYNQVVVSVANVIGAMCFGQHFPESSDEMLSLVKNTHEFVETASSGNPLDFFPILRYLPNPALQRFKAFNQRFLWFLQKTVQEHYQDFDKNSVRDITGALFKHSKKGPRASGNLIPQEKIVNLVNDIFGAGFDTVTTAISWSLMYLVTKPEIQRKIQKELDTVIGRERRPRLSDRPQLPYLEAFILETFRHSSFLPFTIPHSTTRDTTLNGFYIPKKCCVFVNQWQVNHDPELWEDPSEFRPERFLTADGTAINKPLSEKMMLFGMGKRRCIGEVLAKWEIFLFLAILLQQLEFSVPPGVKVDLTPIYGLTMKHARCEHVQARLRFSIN
# MDA-MB-436 [5] = assay: Antiproliferative activity against paclitaxel-resistant human MDA-MB-436 cells 20B clone up to 1000 nM after 72 hrs by ATPlite assay; type: functional, cell-based
# [6] = Stability in human plasma assessed as parent compound remaining after 24 hrs relative to initial time; type: ADME, cell-free; conditions: read-out: Stability
# Hs-578T [7] = assay: Antiproliferative activity against paclitaxel-resistant human Hs 578T cells 20B clone up to 1000 nM after 72 hrs by ATPlite assay; type: functional, cell-based
# in vitro [8] = conditions: human, Caco-2; remark: listed apart in the source
# Description: Apparent intrinsic permeability in human Caco2 cells from basolateral to apical side after 120 mins by mass spectrometry
# [9] = Stability in human plasma assessed as parent compound remaining after 75 mins relative to initial time; type: ADME, cell-free; conditions: read-out: Stability
# MFE-296 [10] = assay: Antitumor activity against human MFE296 cells xenografted in nude BALB/c mouse assessed as tumor growth inhibition at 15 mg/kg, po qd administered via gavage for 10 days; type: functional, organism-based
# Hs-578T [11] = assay: Antiproliferative activity against human Hs 578T cells up to 1000 nM after 72 hrs by ATPlite assay; type: functional, cell-based
# Mus musculus [12] = assay: Toxicity in nude BALB/c mouse xenografted with human A2780 cells assessed as change in body weight at 20 mg/kg, po qd measured up to 12 days post dose; type: organism-based; conditions: in vivo, 288 h
# SNU-16 [13] = assay: Antitumor activity against human SNU16 cells harboring luciferase orthotopically implanted in gastric mucosa of Balb/c nude mouse assessed as tumor growth inhibition at 20 mg/kg, po qd administered for 5 days per week for 3 weeks starting from 1 week post tumor implantation by luminescence imaging method; type: functional, organism-based
# MFE-296 [14] = assay: Antitumor activity against human MFE296 cells xenografted in nude BALB/c mouse assessed as tumor growth inhibition at 3.75 to 7.5 mg/kg, po qd administered via gavage for 10 days relative to control; type: functional
# Cytochrome P450 2D6 = Cytochrome P450 2D6 (Homo sapiens, UniProt P10635); assay: Inhibition of CYP2D6 (unknown origin); type: ADME
# Cytochrome P450 2D6, sequence (P10635 whole entry): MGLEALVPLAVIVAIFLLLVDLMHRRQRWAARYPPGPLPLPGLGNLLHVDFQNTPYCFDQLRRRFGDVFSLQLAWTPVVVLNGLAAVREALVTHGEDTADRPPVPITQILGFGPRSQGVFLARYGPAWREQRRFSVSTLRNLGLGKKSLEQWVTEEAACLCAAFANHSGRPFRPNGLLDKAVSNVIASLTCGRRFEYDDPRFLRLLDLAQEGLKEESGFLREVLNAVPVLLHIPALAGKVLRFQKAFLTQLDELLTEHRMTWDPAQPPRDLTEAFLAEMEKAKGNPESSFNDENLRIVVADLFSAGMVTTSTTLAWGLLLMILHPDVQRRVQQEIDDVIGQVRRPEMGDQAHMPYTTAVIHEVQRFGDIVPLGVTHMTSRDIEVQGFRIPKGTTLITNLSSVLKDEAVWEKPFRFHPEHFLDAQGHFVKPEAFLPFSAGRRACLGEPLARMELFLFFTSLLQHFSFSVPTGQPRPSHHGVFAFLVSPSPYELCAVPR
# [15] = Efflux ratio of apparent intrinsic permeability in human Caco2 cells after 120 mins by mass spectrometry; type: ADME, cell-based; conditions: Caco-2
# [16] = Half life in mouse liver microsomes; type: ADME, microsome
# [17] = Stability in human plasma assessed as parent compound remaining after 8 hrs relative to initial time; type: ADME, cell-free; conditions: read-out: Stability
# [18] = Protein binding in plasma (unknown origin); type: ADME, cell-free; conditions: read-out: PPB (converted)
# [19] = Unbound fraction in plasma (unknown origin); type: ADME, cell-free
# A2780 [20] = assay: Antitumor activity against human A2780 cells xenografted in nude BALB/c mouse assessed as tumor growth inhibition at 15 mg/kg, po administered every other day measured up to 12 days post dose; type: functional, organism-based
# Mus musculus [21] = assay: Toxicity in nude BALB/c mouse xenografted with human MFE296 cells assessed as body weight loss at 15 mg/kg, po qd administered via gavage for 10 days measured after 6 days; type: organism-based; conditions: in vivo, 144 h
# [22] = Half life in dog liver microsomes; type: ADME, Canis lupus familiaris, microsome
# Hs-578T [23] = assay: Antiproliferative activity against paclitaxel-resistant human Hs 578T cells 10C clone up to 1000 nM after 72 hrs by ATPlite assay; type: functional, cell-based
# BT-549 [24] = assay: Antiproliferative activity against human BT549 cells up to 1000 nM after 72 hrs by ATPlite assay; type: functional, cell-based
# [25] = Stability in human plasma assessed as parent compound remaining after 2 hrs relative to initial time; type: ADME, cell-free; conditions: read-out: Stability
# Breast carcinoma cell [26] = assay: Antitumor activity against chemo-refractory disease patient-derived breast cancer cells xenografted in NOD/SCID mouse assessed as tumor regression at 10 mg/kg, po qd administered via gavage for 60 days; type: functional, organism-based; conditions: Homo sapiens
# [27] = Toxicity in mouse; type: organism-based; conditions: in vivo
# [28] = Stability in human plasma assessed as parent compound remaining after 4 hrs relative to initial time; type: ADME, cell-free; conditions: read-out: Stability
# [29] = Half life in rat liver microsomes; type: ADME, microsome
# MDA-MB-436 [30] = assay: Antiproliferative activity against paclitaxel-resistant human MDA-MB-436 cells 20A clone up to 1000 nM after 72 hrs by ATPlite assay; type: functional, cell-based
# Mus musculus [31] = assay: Toxicity in NOD/SCID mouse xenografted with chemo-refractory disease patient-derived breast cancer cells at 10 mg/kg, po qd administered via gavage for 60 days; type: organism-based; conditions: in vivo, 1440 h
# BT-549 [32] = assay: Antiproliferative activity against paclitaxel-resistant human BT549 cells 10A clone up to 1000 nM after 72 hrs by ATPlite assay; type: functional, cell-based
# MDA-MB-436 [33] = assay: Antiproliferative activity against human MDA-MB-436 cells up to 1000 nM after 72 hrs by ATPlite assay; type: functional, cell-based
# Breast carcinoma cell [34] = assay: Antitumor activity against chemo-refractory disease patient-derived breast cancer cells xenografted in NOD/SCID mouse assessed as tumor growth inhibition at 10 mg/kg, po qd administered via gavage for 15 days; type: functional, organism-based; conditions: Homo sapiens
# Mus musculus [35] = assay: Toxicity in nude BALB/c mouse xenografted with human A2780 cells assessed as change in body weight at 15 mg/kg, po administered every other day measured up to 12 days post dose; type: organism-based; conditions: in vivo, 288 h
# [36] = Half life in human liver microsomes; type: ADME, microsome
# [37] = Drug recovery in plasma (unknown origin); type: ADME, cell-free
# Mus musculus [38] = assay: Toxicity in nude BALB/c mouse xenografted with human MFE296 cells assessed as body weight loss at 3.75 to 7.5 mg/kg, po qd administered via gavage for 10 days; type: organism-based; conditions: in vivo, 240 h
# [39] = Tmax in CD-1 mouse administered as single po dose by mass spectrometry; type: ADME, organism-based; conditions: in vivo
smiles,measurement,setting,value
Cc1ncc(C(=O)Nc2ccc(-c3cccc(S(=O)(=O)C4CC4)c3)cn2)cn1,TGI,SNU-16 [1],109%
same,IC50,Cytochrome P450 2C19,> 30 µM
same,IC50,Cytochrome P450 3A4,> 30 µM
same,IC50,Cytochrome P450 2C9,> 30 µM
same,Papp A→B at 2 h,in vitro [2],25.7 ×10⁻⁶ cm/s
same,TGI,A2780 [3],Active
same,MTD,[4],≤ 20 mg/kg
same,IC50,Cytochrome P450 1A2,> 30 µM
same,Activity,MDA-MB-436 [5],Active
same,remaining at 24 h,[6],115%
same,Activity,Hs-578T [7],Active
same,Papp B→A at 2 h,in vitro [8],26.1 ×10⁻⁶ cm/s
same,remaining at 1.25 h,[9],93%
same,TGI,MFE-296 [10],Active
same,Activity,Hs-578T [11],Active
same,Activity,Mus musculus [12],Toxic
same,TGI,SNU-16 [13],Active
same,TGI,MFE-296 [14],>85%
same,IC50,Cytochrome P450 2D6,> 30 µM
same,efflux ratio at 2 h,[15],1.02
same,half-life,[16],1.12 h
same,remaining at 8 h,[17],102%
same,fraction unbound,[18],0.022
same,fraction unbound,[19],0.022
same,TGI,A2780 [20],Active
same,Activity,Mus musculus [21],Toxic
same,half-life,[22],0.832 h
same,Activity,Hs-578T [23],Active
same,Activity,BT-549 [24],Active
same,remaining at 2 h,[25],111%
same,Activity,Breast carcinoma cell [26],Active
same,MTD,[27],≤ 6 mg/kg
same,remaining at 4 h,[28],103%
same,half-life,[29],1.33 h
same,Activity,MDA-MB-436 [30],Active
same,Activity,Mus musculus [31],Non-Toxic
same,Activity,BT-549 [32],Active
same,Activity,MDA-MB-436 [33],Active
same,TGI,Breast carcinoma cell [34],Active
same,Activity,Mus musculus [35],Non-Toxic
same,half-life,[36],2.41 h
same,Drug recovery,[37],87.2%
same,Activity,Mus musculus [38],Non-Toxic
same,Tmax,[39],≤ 0.25 h
